Measured values: patent US6054474A, “Heterocyclic compounds for the treatment of pain and use thereof” (Biochem Pharma, Inc., priority 1995, dated 2000)

What was measured:
mice [1] = assay: Hot Plate Assay in mice; format: in vivo
Protocol: (§1) Antinociceptive activity of compounds of the invention was determined in vivo in a PBQ writhing model and in the hot plate test in rodents. Inhibition of PBQ (phenyl-.rho.-benzoquinone) induced writhing in mice is an assessment of both central and peripherally-mediated analgesia. For experimental protocol see Sigmund et al., Proc. Soc. Ex. Biol. Med., 95, p. 729 (1957) which is incorporated herein by reference. Centrally-mediated analgesia was determined by the inhibition of a hot plate response in mice. For experimental protocol see G. Woolfe and A. Macdonald, J. Pharmacol. Exp. Ther., 80, p. 300 ([…]) which is incorporated herein by reference. Assays measuring opioid receptor binding affinities for μ, δ and κ receptors as well as GPI and MVD assays were determined through experimental protocol set out in Schiller et al., Biophys. Res. Commun., 85, p. 1322 (1975); Rothman et al, Peptides, Vol 11, pp 311-331, 1990; Kaffa et al, Peptides 15(3), 401-404, 1994; Fowler et al, Neurochem. Int 24(5), 401-426, 1994; and Leslie F., Pharmacological Review 39(3), 197-249, 1987 incorporated herein by reference.
For this test, CD #1 male mice (Charles River) weighing between 20-25 grams were used. The mice were weighed, identified, and randomized into groups of 10.
The mice were usually treated by subcutaneous injection of the compound (or the standard or vehicle) or by oral gavage.
The mice were evaluated individually for a latency reaction time on the hot plate. The temperature of the hot plate (Sorel, model DS37) was set at 55° C. […] The reaction time was recorded when one of these signs was noted. The cut off for latency response was 15 seconds so as to prevent damage to the paw tissue. […] The time intervals are typically 30, 60 or 120 minutes (or other).
For each time reading, the average reaction time of the control group was multiplied by 1.5. The reaction time of each treated animal was compared to the "control average×1.5".

mice [2] = assay: Phenylquinone (PBQ) Writhing Assay; format: in vivo
Protocol: as §1
Phenylquinone Writhing Assay
The test was performed using CD #1 male mice (Charles River) weighing between 19 and 25 g. Animals were maintained in constant conditions of light, temperature and humidity. The animals were acclimatized for three days prior to experimentation. […]

CC12CCCCSC(Cc3ccc(O)cc31)C2N (centres unmarked) [compound #9, 5,6,7,8,9,11,12-heptahydro-3-hydroxy-5-methyl-10-thia-5,11 methanobenzocyclodecen-13-amine]
latency response time (mice [1]; 2.5 mg/kg, subcutaneous, after 15 minutes (FIG. 1)): almost maximum
reaction time (mice [1]; 5 mg/kg, subcutaneous (FIG. 1), control approximately 7 seconds): about 19 seconds
latency response to radiant heat, dose dependence (mice [1]; subcutaneous (FIG. 1)): dose dependent latency response
inhibition of the writhing response (PBQ) (mice [2]; oral administration one hour prior to PBQ (FIG. 2)): dose-dependent inhibition
inhibition of the writhing response (PBQ) (mice [2]; s.c. administration twenty minutes prior to PBQ (FIG. 3)): dose-dependent inhibition
